From patent US9012611B2, “Use of 3,8,12,14, 17,20-oxo-substituted pregnene glycosides in the preparation of healthcare products, food additives and pharmaceuticals for the inhibition of appetite” (Institute of Materia Medica, Chinese Academy of Sciences, priority 2010, dated 2015)

Key:
female Wistar rat = experiment: Animal test in vivo: average food consumption (appetite inhibition); details: for Average food consumptions: positive control 15 mg/kg; for average food consumptions compared with the blank control group (in words): during the administration of the drugs, pure glycosides 50 mg/kg
Method: (§1) 6-7 weeks-old female Wistar rat (purchased from Shanghai Laboratory Animal Center of Chinese Academy of Sciences)(weight: 110-150 g) was raised alone in suspended metal cage. After the experimental rat was obtained, it was checked to make sure whether they were abnormal or had obvious disease signs. The rat can freely obtain the drinking-water and feed for rodent (RM1(E)AQC). The feeding cage was controlled to receive 12 h illumination (from 07:00 to 19:00) and to be in a dark environment for 12 h, and the room temperature and relative humidity were controlled to be 21±3° C. and 55±15% respectively and not to deviate the upper and lower limit. The rats were randomly divided into groups depending on the body weight according to random number table to make the average weight in each group are approximately equal. Before the test, the rats were pre-trained suitably for one week (from −7th day to −1st day) during which the consumptions of feed and drinking water were recorded.
(§2) Each group of drug to be tested, positive control group, and blank control group consisted of 5 rats, respectively. The tested drug and positive control drug were mixed with wheaten starch before the administration and formulated to suspension with required doses according to 10 mL/kg of administration volume. The positive control drug was sibutramine hydrochloride and the administration dosage was 15 mg/kg body weight. In the blank control group, only equal amount of starch was used to formulate suspension for administration by […] in a same volume. The administration time is the 1st day, 2nd day and 3rd day. The body weight of the rat, the consumption of the feed (the weight of the feeding hopper) and consumption of the drinking water (bottle weight) were recorded from the −7th day to the 7th day.

[1] = Animal test in vivo: average body weight; parameters: species or system rat; details: for Average body weight: positive control 15 mg/kg; for body weight compared with the blank control group (in words): during the administration of the drugs, pure glycosides 50 mg/kg
Method: as §1, §2

CO[C@H]1C[C@H](O[C@H]2[C@@H](OC)C[C@H](O[C@H]3CC[C@@]4(C)C(=CC[C@]5(O)[C@@H]4C[C@@H](OC(=O)/C=C(\C)C(C)C)[C@@]4(C)[C@]5(O)CC[C@@]4(O)C(C)=O)C3)O[C@@H]2C)O[C@@H](C)[C@H]1O[C@H]1C[C@H](OC)[C@H](O[C@H]2C[C@@H](OC)[C@@H](O[C@@H]3O[C@H](CO)[C@@H](O)[C@H](O)[C@H]3O)[C@H](C)O2)[C@@H](C)O1 [Wilfoside C1G, wilfoside C1G]
Average food consumptions (female Wistar rat; 1st day (administration day), Table 1, crude extract 300 mg/kg, others 50 mg/kg): 14.4 g
Average food consumptions (female Wistar rat; 2nd day (administration day), Table 1, crude extract 300 mg/kg, others 50 mg/kg): 12.4 g
Average food consumptions (female Wistar rat; 3rd day (administration day), Table 1, crude extract 300 mg/kg, others 50 mg/kg): 14.4 g
Average food consumptions (female Wistar rat; 4th day (after administration on days 1-3), Table 1, crude extract 300 mg/kg, others 50 mg/kg): 14.8 g
Average food consumptions (female Wistar rat; 5th day (after administration on days 1-3), Table 1, crude extract 300 mg/kg, others 50 mg/kg): 17.6 g
Average food consumptions (female Wistar rat; 6th day (after administration on days 1-3), Table 1, crude extract 300 mg/kg, others 50 mg/kg): 12.4 g
Average food consumptions (female Wistar rat; 7th day (after administration on days 1-3), Table 1, crude extract 300 mg/kg, others 50 mg/kg): 15.2 g
average food consumptions compared with the blank control group (in words) (female Wistar rat; crude extract 300 mg/kg): no great differences
Average food consumptions (female Wistar rat; −1st day (before administration), Table 1, crude extract 300 mg/kg, others 50 mg/kg): 14 g
Average food consumptions (female Wistar rat; −2nd day (before administration), Table 1, crude extract 300 mg/kg, others 50 mg/kg): 13.6 g
Average food consumptions (female Wistar rat; −3rd day (before administration), Table 1, crude extract 300 mg/kg, others 50 mg/kg): 14.8 g
Average food consumptions (female Wistar rat; −4th day (before administration), Table 1, crude extract 300 mg/kg, others 50 mg/kg): 15.2 g
Average food consumptions (female Wistar rat; −5th day (before administration), Table 1, crude extract 300 mg/kg, others 50 mg/kg): 13.6 g
Average food consumptions (female Wistar rat; −6th day (before administration), Table 1, crude extract 300 mg/kg, others 50 mg/kg): 13.6 g
Average food consumptions (female Wistar rat; −7th day (before administration), Table 1, crude extract 300 mg/kg, others 50 mg/kg): 13.6 g
Average body weight ([1]; 1st day (administration day), Table 3, crude extract 300 mg/kg, others 50 mg/kg): 163.6 g
Average body weight ([1]; 2nd day (administration day), Table 3, crude extract 300 mg/kg, others 50 mg/kg): 163.2 g
Average body weight ([1]; 3rd day (administration day), Table 3, crude extract 300 mg/kg, others 50 mg/kg): 165.2 g
Average body weight ([1]; 4th day (after administration on days 1-3), Table 3, crude extract 300 mg/kg, others 50 mg/kg): 166.4 g
Average body weight ([1]; 5th day (after administration on days 1-3), Table 3, crude extract 300 mg/kg, others 50 mg/kg): 170.4 g
Average body weight ([1]; 6th day (after administration on days 1-3), Table 3, crude extract 300 mg/kg, others 50 mg/kg): 169.6 g
Average body weight ([1]; 7th day (after administration on days 1-3), Table 3, crude extract 300 mg/kg, others 50 mg/kg): 174.4 g
body weight compared with the blank control group (in words) ([1]; crude extract 300 mg/kg): no great differences
Average body weight ([1]; −1st day (before administration), Table 3, crude extract 300 mg/kg, others 50 mg/kg): 162.8 g
Average body weight ([1]; −2nd day (before administration), Table 3, crude extract 300 mg/kg, others 50 mg/kg): 157.6 g
Average body weight ([1]; −3rd day (before administration), Table 3, crude extract 300 mg/kg, others 50 mg/kg): 155.6 g
Average body weight ([1]; −4th day (before administration), Table 3, crude extract 300 mg/kg, others 50 mg/kg): 153.2 g
Average body weight ([1]; −5th day (before administration), Table 3, crude extract 300 mg/kg, others 50 mg/kg): 151.2 g
Average body weight ([1]; −6th day (before administration), Table 3, crude extract 300 mg/kg, others 50 mg/kg): 147.6 g
Average body weight ([1]; −7th day (before administration), Table 3, crude extract 300 mg/kg, others 50 mg/kg): 145.6 g

CO[C@H]1C[C@H](O[C@H]2[C@@H](OC)C[C@H](O[C@H]3CC[C@@]4(C)C(=CC[C@]5(O)[C@@H]4C[C@@H](OC(=O)/C=C/c4ccccc4)[C@@]4(C)[C@]5(O)CC[C@@]4(O)C(C)=O)C3)O[C@@H]2C)O[C@@H](C)[C@H]1O[C@H]1C[C@H](OC)[C@H](O[C@H]2C[C@@H](OC)[C@@H](O)[C@H](C)O2)[C@@H](C)O1 [Wilfoside K1N, wilfoside K1N]
Average food consumptions (female Wistar rat; 1st day (administration day), Table 4, wilfosides 50 mg/kg): 2.8 g
Average food consumptions (female Wistar rat; 2nd day (administration day), Table 4, wilfosides 50 mg/kg): 6.4 g
Average food consumptions (female Wistar rat; 3rd day (administration day), Table 4, wilfosides 50 mg/kg): 2.8 g
Average food consumptions (female Wistar rat; 4th day (after administration on days 1-3), Table 4, wilfosides 50 mg/kg): 8.4 g
Average food consumptions (female Wistar rat; 5th day (after administration on days 1-3), Table 4, wilfosides 50 mg/kg): 9.2 g
Average food consumptions (female Wistar rat; 6th day (after administration on days 1-3), Table 4, wilfosides 50 mg/kg): 13.6 g
Average food consumptions (female Wistar rat; 7th day (after administration on days 1-3), Table 4, wilfosides 50 mg/kg): 14.8 g
average food consumptions compared with the blank control group (in words) (female Wistar rat; crude extract 300 mg/kg): greatly different from those in the blank group
Average food consumptions (female Wistar rat; −1st day (before administration), Table 4, wilfosides 50 mg/kg): 13.2 g
Average food consumptions (female Wistar rat; −2nd day (before administration), Table 4, wilfosides 50 mg/kg): 13.6 g
Average food consumptions (female Wistar rat; −3rd day (before administration), Table 4, wilfosides 50 mg/kg): 13.2 g
Average food consumptions (female Wistar rat; −4th day (before administration), Table 4, wilfosides 50 mg/kg): 14.4 g
Average food consumptions (female Wistar rat; −5th day (before administration), Table 4, wilfosides 50 mg/kg): 14.8 g
Average food consumptions (female Wistar rat; −6th day (before administration), Table 4, wilfosides 50 mg/kg): 10.8 g
Average food consumptions (female Wistar rat; −7th day (before administration), Table 4, wilfosides 50 mg/kg): 7.6 g
Average body weight ([1]; 1st day (administration day), Table 6, wilfosides 50 mg/kg): 136.4 g
Average body weight ([1]; 2nd day (administration day), Table 6, wilfosides 50 mg/kg): 134.4 g
Average body weight ([1]; 3rd day (administration day), Table 6, wilfosides 50 mg/kg): 130.4 g
Average body weight ([1]; 4th day (after administration on days 1-3), Table 6, wilfosides 50 mg/kg): 134.2 g
Average body weight ([1]; 5th day (after administration on days 1-3), Table 6, wilfosides 50 mg/kg): 136.8 g
Average body weight ([1]; 6th day (after administration on days 1-3), Table 6, wilfosides 50 mg/kg): 139.2 g
Average body weight ([1]; 7th day (after administration on days 1-3), Table 6, wilfosides 50 mg/kg): 144 g
body weight compared with the blank control group (in words) ([1]; crude extract 300 mg/kg): greatly different from those in the blank group
Average body weight ([1]; −1st day (before administration), Table 6, wilfosides 50 mg/kg): 148.8 g
Average body weight ([1]; −2nd day (before administration), Table 6, wilfosides 50 mg/kg): 146.4 g
Average body weight ([1]; −3rd day (before administration), Table 6, wilfosides 50 mg/kg): 143.6 g
Average body weight ([1]; −4th day (before administration), Table 6, wilfosides 50 mg/kg): 141.6 g
Average body weight ([1]; −5th day (before administration), Table 6, wilfosides 50 mg/kg): 140 g
Average body weight ([1]; −6th day (before administration), Table 6, wilfosides 50 mg/kg): 137.6 g
Average body weight ([1]; −7th day (before administration), Table 6, wilfosides 50 mg/kg): 134.8 g
